Results on 30 molecules are retold here after US9988400B2 (Genentech, Inc., priority 2013, dated 2018).

As a reminder, the EC50 is the concentration at which the effect is half-maximal.

This experiment addresses T1, HEK cells stably transfected with tetracycline inducible hNR1 and hNR2A (Homo sapiens, UniProt Q05586+Q12879).
T1 construct: expressed in transfected cells; host or cells: HEK cells, stably transfected, tetracycline/doxycycline inducible
Briefly: Assay 1: Cell-Based Assay, cytosolic calcium response to positive allosteric modulators (with 30 μM glycine and 300 nM L-glutamate, EC30). Particulars: for EC50: cytosolic calcium response, with 30 μM glycine and 300 nM L-glutamate (EC30), — = no plateau was reached; for Max %: responses scaled relative to 100 μM L-glutamate maximal response (100%) and 0 μM L-glutamate (0%). In short, it runs like this:
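Cells induced 24 h with 7.5 μg mL^−1 doxycycline plus 500 μM (+)-ketamine, loaded 60 min at 37 °C with calcium dye in Mg-free HBSS (1.8 mM Ca, probenecid, 10 μM (+)-ketamine, pH 7.15). Peak RFU over 5 min after compound addition, scaled to 100 μM L-glutamate (100%) and 0 μM (0%); four-parameter Hill fit for EC50, max % if no plateau.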

T1 sequence (Q12879 23-1464, other chains not shown): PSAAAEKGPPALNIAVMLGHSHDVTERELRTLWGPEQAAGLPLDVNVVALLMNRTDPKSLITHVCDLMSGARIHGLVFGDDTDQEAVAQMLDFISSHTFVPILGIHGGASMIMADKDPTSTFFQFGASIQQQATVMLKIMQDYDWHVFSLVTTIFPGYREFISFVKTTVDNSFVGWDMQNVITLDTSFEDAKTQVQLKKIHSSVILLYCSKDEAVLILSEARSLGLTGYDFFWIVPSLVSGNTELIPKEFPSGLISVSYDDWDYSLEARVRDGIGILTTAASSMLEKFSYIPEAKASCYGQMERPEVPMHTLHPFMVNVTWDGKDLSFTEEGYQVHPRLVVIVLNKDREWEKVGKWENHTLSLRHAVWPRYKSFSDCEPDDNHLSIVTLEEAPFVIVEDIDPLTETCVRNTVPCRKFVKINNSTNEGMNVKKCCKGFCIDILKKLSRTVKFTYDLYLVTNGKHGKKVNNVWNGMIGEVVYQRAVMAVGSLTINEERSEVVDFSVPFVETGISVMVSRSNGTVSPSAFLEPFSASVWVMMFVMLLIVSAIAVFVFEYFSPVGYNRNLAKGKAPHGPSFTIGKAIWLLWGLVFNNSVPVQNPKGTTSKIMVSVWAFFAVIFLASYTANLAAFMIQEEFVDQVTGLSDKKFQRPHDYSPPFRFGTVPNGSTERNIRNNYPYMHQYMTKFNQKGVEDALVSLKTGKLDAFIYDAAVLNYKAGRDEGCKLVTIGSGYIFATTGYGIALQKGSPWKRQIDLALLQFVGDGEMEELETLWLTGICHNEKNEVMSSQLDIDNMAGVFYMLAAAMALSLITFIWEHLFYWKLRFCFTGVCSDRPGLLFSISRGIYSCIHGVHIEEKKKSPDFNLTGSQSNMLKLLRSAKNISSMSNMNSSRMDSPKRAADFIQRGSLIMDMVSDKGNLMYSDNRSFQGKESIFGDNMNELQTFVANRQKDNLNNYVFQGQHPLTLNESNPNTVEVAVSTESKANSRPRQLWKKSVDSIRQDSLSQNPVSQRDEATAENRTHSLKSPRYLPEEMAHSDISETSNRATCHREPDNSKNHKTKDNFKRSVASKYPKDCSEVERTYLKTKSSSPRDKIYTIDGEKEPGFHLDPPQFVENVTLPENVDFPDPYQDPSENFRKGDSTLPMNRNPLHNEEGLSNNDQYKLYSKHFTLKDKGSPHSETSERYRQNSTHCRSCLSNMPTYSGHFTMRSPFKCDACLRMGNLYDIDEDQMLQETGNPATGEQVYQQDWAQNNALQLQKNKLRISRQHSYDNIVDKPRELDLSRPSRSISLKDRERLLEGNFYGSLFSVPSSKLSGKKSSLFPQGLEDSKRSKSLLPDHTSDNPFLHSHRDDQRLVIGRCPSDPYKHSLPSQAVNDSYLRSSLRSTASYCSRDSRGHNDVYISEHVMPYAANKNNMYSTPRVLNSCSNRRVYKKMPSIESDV

With `CCN(Cc1cc(=O)n2c(C3CCC3)c(C)sc2n1)c1ccc(F)cc1` [Example 10.1, 3-cyclobutyl-7-[(N-ethyl-4-fluoro-anilino)methyl]-2-methyl-thiazolo[3,2-a]pyrimidin-5-one], for the setting “Table 2”, the EC50 stood at 4400 nM and the Max % was 130%. As to `CCNC(=O)c1c(C)sc2nc(Cc3cccc(F)c3)cc(=O)n12` [Example 21.46, N-ethyl-7-(3-fluorobenzyl)-2-methyl-5-oxo-5H-thiazolo[3,2-a]pyrimidine-3-carboxamide], the Max % (Table 2) turned out to be 43.2%.

For the molecule `CCN(Cc1cc(=O)n2c(C(O)CCO)c(C)sc2n1)c1ccc(F)cc1` (single isomer, unassigned) [Example 12.3, 3-(1,3-dihydroxypropyl)-7-[(N-ethyl-4-fluoro-anilino)methyl]-2-methyl-thiazolo[3,2-a]pyrimidin-5-one], under “Table 2”, the EC50 amounted to 1600 nM and the Max % stood at 183%.

In the case of `CCNC(=O)Cc1c(C)sc2nc(Cc3cccc(C(F)(F)F)c3F)cc(=O)n12` [compound 71, N-ethyl-2-[7-[[2-fluoro-3-(trifluoromethyl)phenyl]methyl]-2-methyl-5-oxo-thiazolo[3,2-a]pyrimidin-3-yl]acetamide], the EC50 (Table 3) is 1370 nM. Consider `CCNC(=O)c1c(C2CC2)sc2nc(Cc3cccc(C#N)c3F)cc(=O)n12` [Example 21.9, 7-(3-cyano-2-fluorobenzyl)-2-cyclopropyl-N-ethyl-5-oxo-5H-thiazolo[3,2-a]pyrimidine-3-carboxamide], for which the Max % (Table 2) is 90.1%.

On to `CC1CC1c1c(Cl)sc2nc(Cc3cccc(C#N)c3F)cc(=O)n12` (stereo not shown) [compound 85, 3-[[2-chloro-3-(2-methylcyclopropyl)-5-oxo-thiazolo[3,2-a]pyrimidin-7-yl]methyl]-2-fluoro-benzonitrile], for which, for the setting “Table 3”, the 50% effective concentration (EC50) was 2390 nM. Take `CNC(=O)c1c(C)sc2nc(Cc3cccc(C(F)F)c3F)cc(=O)n12` [Example 21.23, 7-[[3-(difluoromethyl)-2-fluoro-phenyl]methyl]-N,2-dimethyl-5-oxo-thiazolo[3,2-a]pyrimidine-3-carboxamide]: under “Table 2”, the EC50 worked out at 6500 nM and the Max % was 107%. Turning to `CCNC(=O)c1c(C)sc2nc(Cc3cccc(C(F)F)c3F)cc(=O)n12` [Example 21.20, 7-[[3-(difluoromethyl)-2-fluoro-phenyl]methyl]-N-ethyl-2-methyl-5-oxo-thiazolo[3,2-a]pyrimidine-3-carboxamide], under “Table 2”, the EC50 turned out to be 5200 nM and the Max % was found to be 114%.

On to `CCN(Cc1cc(=O)n2c(CN(C)C)c(C)sc2n1)c1ccc(F)cc1` [Example 10.7, 3-[(dimethylamino)methyl]-7-[[ethyl(4-fluorophenyl)amino]methyl]-2-methyl-5H-[1,3]thiazolo[3,2-a]pyrimidin-5-one], for which, for the setting “Table 2”, the EC50 came to 23400 nM and the Max % was 127%. On to `CCNC(=O)c1c(C)sc2nc(CN(CC)c3ccccn3)cc(=O)n12` [compound 148, N-ethyl-7-[[ethyl(2-pyridyl)amino]methyl]-2-methyl-5-oxo-thiazolo[3,2-a]pyrimidine-3-carboxamide], for which, under “Table 3”, the EC50 was 20800 nM. As to `CNC(=O)Cc1c(C)sc2nc(Cn3nc(C(F)(F)F)cc3C3CC3)cc(=O)n12` [compound 18, 2-[7-[[5-cyclopropyl-3-(trifluoromethyl)pyrazol-1-yl]methyl]-2-methyl-5-oxo-thiazolo[3,2-a]pyrimidin-3-yl]-N-methyl-acetamide], the concentration for a half-maximal effect (EC50) (Table 3) came out at 2250 nM. Consider `Cc1sc2nc(Cc3cccc(C#N)n3)cc(=O)n2c1C1CC1C#N` (stereo not shown) [Example 23.3, 6-((3-(2-cyanocyclopropyl)-2-methyl-5-oxo-5H-thiazolo[3,2-a]pyrimidin-7-yl)methyl)picolinonitrile], for which, where the note is “Table 2”, the concentration for a half-maximal effect (EC50) amounted to 14800 nM and the Max % came out at 133%. Taken in the same sequence, the figures for `Cc1cc(Cl)n(Cc2cc(=O)n3c([C@@H]4C[C@H]4CO)c(C)sc3n2)n1` (relative stereo) [Example 15.4, 7-((5-chloro-3-methyl-1H-pyrazol-1-yl)methyl)-3-(trans-2-(hydroxymethyl)cyclopropyl)-2-methyl-5H-thiazolo[3,2-a]pyrimidin-5-one] were 782 nM and 137%. Take `Cc1sc2nc(COc3ccc(F)cc3)cc(=O)n2c1[C@@H]1C[C@H]1CC#N` (relative stereo) [Example 4.26, trans-2-[2-[7-(4-Fluorophenoxymethyl)-2-methyl-5-oxo-5H-[1,3]thiazolo[3,2-a]pyrimidin-3-yl]cyclopropyl]acetonitrile]: the Max % (Table 2) is 98.8%. In the case of `CCN(Cc1cc(=O)n2c(CCCO)c(C)sc2n1)c1ccc(F)cc1` [Example 13.1, 7-[(N-ethyl-4-fluoro-anilino)methyl]-3-(3-hydroxypropyl)-2-methyl-thiazolo[3,2-a]pyrimidin-5-one], where the note is “Table 2”, the EC50 was determined as 434 nM and the Max % is given as 161%. Regarding `CNC(=O)c1c(C)sc2nc(Cn3nc(C(F)(F)F)cc3Cl)cc(=O)n12` [compound 96, 7-[[5-chloro-3-(trifluoromethyl)pyrazol-1-yl]methyl]-N,2-dimethyl-5-oxo-thiazolo[3,2-a]pyrimidine-3-carboxamide], the EC50 (Table 3) was 1210 nM.

Consider `CC[C@@H](C)NC(=O)c1c(C)sc2nc(Cc3cccc(C(F)(F)F)c3F)cc(=O)n12` [compound 179, 7-[[2-fluoro-3-(trifluoromethyl)phenyl]methyl]-2-methyl-N-[(1R)-1-methylpropyl]-5-oxo-thiazolo[3,2-a]pyrimidine-3-carboxamide], for which the EC50 (Table 3) is 698 nM. Still for that read-out and setting: in the case of `CCNC(=O)c1c(C)sc2nc(CN(CC)c3ccc(F)cc3)cc(=O)n12` [compound 82, N-ethyl-7-[(N-ethyl-4-fluoro-anilino)methyl]-2-methyl-5-oxo-thiazolo[3,2-a]pyrimidine-3-carboxamide] it was 78.7 nM; in that of `Cc1sc2nc(Cn3nc(C(F)(F)F)cc3Cl)cc(=O)n2c1C(=O)C1CC1` [compound 224, 7-[[5-chloro-3-(trifluoromethyl)pyrazol-1-yl]methyl]-3-(cyclopropanecarbonyl)-2-methyl-thiazolo[3,2-a]pyrimidin-5-one], 366 nM. Take `Cc1sc2nc(COc3ccc(F)cc3)cc(=O)n2c1C(=O)C(F)(F)F` [Example 2.11, 7-(4-Fluorophenoxymethyl)-2-methyl-3-(trifluoroacetyl)-5H-[1,3]thiazolo[3,2-a]pyrimidin-5-one]: the Max % (Table 2) worked out at 87.4%. Take `Cc1sc2nc(COc3ccc(F)cc3)cc(=O)n2c1[C@@H]1C[C@@H]1CO` (relative stereo) [Example 4.23, 7-(4-Fluorophenoxymethyl)-3-[cis-2-(hydroxymethyl)cyclopropyl]-2-methyl-5H-[1,3]thiazolo[3,2-a]pyrimidin-5-one]: under “Table 2”, the EC50 came out at 26500 nM and the Max % was 62.9%.

With `Cc1sc2nc(Cn3nc(C(F)(F)F)cc3Cl)cc(=O)n2c1C1CCC1` [compound 188, 7-[[5-chloro-3-(trifluoromethyl)pyrazol-1-yl]methyl]-3-cyclobutyl-2-methyl-thiazolo[3,2-a]pyrimidin-5-one], the EC50 (Table 3) turned out to be 3140 nM. In the case of `CCN(Cc1cc(=O)n2c(-c3cn[nH]c3)c(C)sc2n1)c1ccc(F)cc1` [Example 5.34, 7-[(N-ethyl-4-fluoro-anilino)methyl]-2-methyl-3-(1H-pyrazol-4-yl)thiazolo[3,2-a]pyrimidin-5-one], for the setting “Table 2”, the EC50 is 2800 nM and the Max % is reported as 118%.

With `Cc1sc2nc(Cc3cccc(C(F)(F)F)c3F)cc(=O)n2c1-c1ncn[nH]1` [compound 240, 7-[[2-Fluoro-3-(trifluoromethyl)phenyl]methyl]-2-methyl-3-(1H-1,2,4-triazol-5-yl)thiazolo[3,2-a]pyrimidin-5-one], for the setting “Table 3”, the 50% effective concentration (EC50) was found to be 37100 nM. In the case of `CCNC(=O)c1c(C)sc2nc(Cc3cccc(C(F)(F)F)c3)cc(=O)n12` [Example 21.7, N-ethyl-2-methyl-5-oxo-7-(3-(trifluoromethyl)benzyl)-5H-thiazolo[3,2-a]pyrimidine-3-carboxamide], the Max % (Table 2) came to 100%. Consider `Cc1sc2nc(Cn3nc(C(F)(F)F)cc3Cl)cc(=O)n2c1C(F)(F)F` [compound 160, 7-[[5-chloro-3-(trifluoromethyl)pyrazol-1-yl]methyl]-2-methyl-3-(trifluoromethyl)thiazolo[3,2-a]pyrimidin-5-one], for which, where the note is “Table 3”, the EC50 stood at 753 nM.

Take `Cc1sc2nc(Cc3cccc(C(F)(F)F)c3F)cc(=O)n2c1C(C)O` (single isomer, unassigned; enantiomer 1) [Example 27.11, 7-(2-fluoro-3-(trifluoromethyl)benzyl)-3-(1-hydroxyethyl)-2-methyl-5H-thiazolo[3,2-a]pyrimidin-5-one (enantiomer 1)]: the EC50 (Table 2) amounted to 25300 nM. In the case of `Cc1sc2nc(Cc3cccc(C(F)(F)F)c3F)cc(=O)n2c1Cc1ncc[nH]1` [compound 81, 7-[[2-fluoro-3-(trifluoromethyl)phenyl]methyl]-3-(1H-imidazol-2-ylmethyl)-2-methyl-thiazolo[3,2-a]pyrimidin-5-one], for the setting “Table 3”, the EC50 was 52000 nM.

Take `Cc1sc2nc(COc3ccc(F)cc3)cc(=O)n2c1C(=O)C1COC1` [Example 2.9, 7-((4-fluorophenoxy)methyl)-2-methyl-3-(oxetane-3-carbonyl)-5H-thiazolo[3,2-a]pyrimidin-5-one]: where the note is “Table 2”, the Max % was 56.4%.

As to `Cc1sc2nc(Cn3nc(C4CC4)cc3C)cc(=O)n2c1[C@@H]1C[C@H]1CO` (single isomer, unassigned) [Example 15.15, 7-[(3-cyclopropyl-5-methyl-pyrazol-1-yl)methyl]-3-[2-(hydroxymethyl)cyclopropyl]-2-methyl-thiazolo[3,2-a]pyrimidin-5-one], the Max % (Table 2) was found to be 61.9%.
